Laboratory results from ChEMBL document CHEMBL5352452, “Design, synthesis and pharmacological evaluation of β-carboline derivatives as potential antitumor agent via targeting autophagy” (Eur J Med Chem, 2023).

Legend:
Format in all cases: functional, cell-based
A-375 = test: Antiproliferative activity against human A-375 cells assessed as inhibition of cell growth measured after 48 hrs by MTT assay; conditions: A-375, 48 h
[1] = Antiproliferative activity against human BIU-87 cells assessed as inhibition of cell growth measured after 48 hrs by MTT assay; conditions: BIU87, 48 h
ECa-109 cell line = test: Antiproliferative activity against human Eca-109 cells assessed as inhibition of cell growth measured after 48 hrs by MTT assay; conditions: ECa-109, 48 h
CWR22R = test: Antiproliferative activity against human 22Rv1 cells assessed as inhibition of cell growth measured after 48 hrs by MTT assay; conditions: 22Rv1, 48 h
BGC-823 = test: Antiproliferative activity against human BGC-823 cells assessed as inhibition of cell growth measured after 48 hrs by MTT assay; conditions: BGC-823, 48 h
SK-OV-3 = test: Antiproliferative activity against human SK-OV-3 cells assessed as inhibition of cell growth measured after 48 hrs by MTT assay; conditions: SK-OV-3, 48 h
786-0 = test: Antiproliferative activity against human 786-0 cells assessed as inhibition of cell growth measured after 48 hrs by MTT assay; conditions: 786-0, 48 h
MCF7 = test: Antiproliferative activity against human MCF7 cells assessed as inhibition of cell growth measured after 48 hrs by MTT assay; conditions: MCF7, 48 h
KB = test: Antiproliferative activity against human KB cells assessed as inhibition of cell growth measured after 48 hrs by MTT assay
HT-29 = test: Antiproliferative activity against human HT-29 cells assessed as inhibition of cell growth measured after 48 hrs by MTT assay; conditions: HT-29, 48 h

| IC50 (A-375) [µM] | IC50 (BGC-823) [µM] | IC50 (SK-OV-3) [µM] | IC50 (786-0) [µM] | IC50 (MCF7) [µM] | IC50 (KB) [µM] | IC50 (HT-29) [µM] | SMILES | IC50 [1] [µM] | IC50 (ECa-109 cell line) [µM] | IC50 (CWR22R) [µM] |
| --- | --- | --- | --- | --- | --- | --- | --- | --- | --- | --- |
| 17.2 | 98.5 | 27.3 | 2.32 | 50.2 | 34.8 | 11 | CCCCn1c2ccccc2c2cc(CN3CCN(C)CC3)nc(CN3CCN(C)CC3)c21 | 23.9 | 25.6 | 4.63 |
| 16.8 | 48.7 | 8.72 | 2.68 | 36.4 | 28.6 | 5.98 | CN1CCN(Cc2cc3c4ccccc4n(Cc4ccc(F)cc4)c3c(CN3CCN(C)CC3)n2)CC1 | 16.9 | 9.87 | 5.62 |
| 13.6 | 58.3 | 15.6 | 2.36 | 27.5 | 24.2 | 6.42 | CN1CCN(Cc2cc3c4ccccc4n(Cc4ccccc4)c3c(CN3CCN(C)CC3)n2)CC1 | 15.5 | 16.8 | 6.47 |
| 12 | 36.8 | 4.62 | 3.21 | 15.8 | 15.6 | 5.68 | CN1CCN(Cc2cc3c4ccccc4n(Cc4cccc(Cl)c4)c3c(CN3CCN(C)CC3)n2)CC1 | 8.01 | 11.3 | 4.93 |
| 85.9 | > 100 | 93.5 | 13.4 | > 100 | > 100 | 46.8 | CN1CCN(Cc2cc3c4ccccc4n(C)c3c(CN3CCN(C)CC3)n2)CC1 | > 100 | > 100 | > 100 |
| > 100 | > 100 | > 100 | 28.4 | > 100 | > 100 | 83.3 | CN1CCN(Cc2cc3c([nH]c4ccccc43)c(CN3CCN(C)CC3)n2)CC1 | > 100 | > 100 | > 100 |
